US20070259888A1, “Novel Compounds” (ASTRAZENECA AB, priority 2006, published 2007)

How the values were obtained:
[1] = target: T1, hM1 (human Muscarinic receptor subtype 1) (Homo sapiens, UniProt P11229); assay: Human M1 calcium mobilization FLIPR assay; type: cell-based; conditions: CHO cells expressing hM1, FLIPR; for EC50: read-out: hM1EC50; for Emax: read-out: hM1Emax
T1 construct: expressed in transfected cells; host or cells: CHO cells (chinese hamster ovary cells, ATCC)
T1 sequence (P11229 1-460): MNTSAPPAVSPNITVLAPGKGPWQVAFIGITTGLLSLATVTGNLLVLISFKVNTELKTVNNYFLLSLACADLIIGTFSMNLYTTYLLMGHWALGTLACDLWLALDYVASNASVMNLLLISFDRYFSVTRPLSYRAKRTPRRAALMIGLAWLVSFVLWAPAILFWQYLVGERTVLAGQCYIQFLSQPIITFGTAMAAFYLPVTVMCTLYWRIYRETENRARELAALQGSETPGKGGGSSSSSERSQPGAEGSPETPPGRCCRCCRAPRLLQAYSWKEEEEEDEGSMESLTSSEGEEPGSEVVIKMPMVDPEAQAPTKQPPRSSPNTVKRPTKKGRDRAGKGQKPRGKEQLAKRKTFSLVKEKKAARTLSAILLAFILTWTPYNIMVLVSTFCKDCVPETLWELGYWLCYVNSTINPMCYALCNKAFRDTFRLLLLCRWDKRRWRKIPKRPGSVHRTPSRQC
Procedure: The compound activity in the present invention (EC50 or IC50) was measured using a 384 plate-based imaging assay that monitors drug induced intracellular Ca^2+ release in whole cells. Activation of hM1 (human Muscarinic receptor subtype 1, gene bank access NM_000738), rM1 (rat Muscarinic receptor subtype 1, gene bank access NM_080773), hM3 (human Muscarinic receptor subtype 3, gene bank access NM_000740NM_000740) and hM5 (human Muscarinic receptor subtype 5, gene bank access NM_0121258) receptors expressed in CHO cells (chinese hamster ovary cells, ATCC) was quantified in a Molecular Devices FLIPR II™ instrument as an increase in fluorescent signal. Inhibition of hM3 and hM5 by compounds was determined by the decrease in fluorescent signal in response to 2 nM acetylcholine activation.
CHO cells were plated in 384-black polylysine coated plate (Costar) at 8000 cells/well/50 μl for 24 hours or 4000 cells/well for 48 hours in a humidified incubator (5% CO2 and 37° C.) in DMEM/F12 medium without selection agent. Prior to the experiment the cell culture medium was removed from the plates by inversion. A loading solution of 30 μl of Hank's balanced salt solution, 10 mM Hepes and 2.5 mM Probenicid at Ph 7.4 (Cat no. 311-520-VL, Wisent) with 2 μM calcium indicator dye (FLUO-3AM, Molecular Probes F14202) was added to each well. Plates were incubated at 37° C. for 60 minutes prior to start the experiment. The incubation was terminated by washing the cells four times in assay buffer, leaving a residual 25 μl buffer per well. Cell plates were then transferred to the FLIPR, ready for compound additions.
The day of experiment, acetylcholine and compounds were diluted in three-fold concentration range (10 points serial dilution) for addition by FLIPR instrument. For all calcium assays, a baseline reading was taken for 30 seconds followed by the addition of 12.5 μl (25 μl for hM1 and rM1) of compounds, resulting in a total well volume of 37.5 μl (50 μl for hM1 and rM1). Data were collected every 1.6 seconds for 300 seconds. For hM3 and hM5 an additional 12.5 μl of acetylcholine (2 nM final) was added at 300 seconds. After this addition of acetylcholine (producing a final volume of 50 μl), the FLIPR continued to collect data every 2 seconds for 240 seconds. The fluorescence emission was read using filter 1 (emission 520-545 nm) by the FLIPR on board CCD camera.
Calcium mobilization output data were calculated as the maximal relative fluorescence unit (RFU) minus the minimal value for both compound and agonist reading frame (except for hM1 and rM1 using only the maximal RFU). Data were analyzed using sigmoidal fits of a non-linear curve-fitting program (XLfit version 5.0.6 from ID Business Solutions Limited, Guildford, UK). All EC50 and IC50 values are reported as geometric means of ‘n’ independent experiments.

[2] = target: T2, human M2 receptor (human Muscarinic receptor subtype 2) (Homo sapiens, UniProt P08172); assay: hM2 receptor GTPγS binding; type: biochemical; conditions: CHO membranes expressing hM2, GTPγ35S binding; for EC50: read-out: hM2_EC50
T2 construct: purchased Perkin-Elmer RBHM2M; host or cells: Chinese hamster ovary cells (CHO), membranes
T2 sequence (P08172 1-466): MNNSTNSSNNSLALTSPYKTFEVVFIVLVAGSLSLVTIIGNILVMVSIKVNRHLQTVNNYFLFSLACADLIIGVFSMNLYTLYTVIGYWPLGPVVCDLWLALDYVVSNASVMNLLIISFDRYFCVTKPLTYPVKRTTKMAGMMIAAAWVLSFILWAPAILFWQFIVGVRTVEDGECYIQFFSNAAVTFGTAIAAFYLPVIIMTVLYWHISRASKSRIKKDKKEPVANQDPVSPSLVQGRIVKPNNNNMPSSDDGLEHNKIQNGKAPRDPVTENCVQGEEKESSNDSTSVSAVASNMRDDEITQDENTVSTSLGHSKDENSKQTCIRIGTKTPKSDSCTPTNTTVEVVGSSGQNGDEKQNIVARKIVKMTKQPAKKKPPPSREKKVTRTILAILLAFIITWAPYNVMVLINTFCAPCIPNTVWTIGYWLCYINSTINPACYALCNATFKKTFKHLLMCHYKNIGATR
Procedure: hM2 Receptor GTPyS Binding
Membranes produced from Chinese hamster ovary cells (CHO) expressing the cloned human M2 receptor (human Muscarinic receptor subtype 2, gene bank access NM_000739), were obtained from Perkin-Elmer (RBHM2M). The membranes were thawed at 37° C., passed 3 times through a 23-gauge blunt-end needle, diluted in the GTPγS binding buffer (50 mM Hepes, 20 mM NaOH, 100 mM NaCl, 1 mM EDTA, 5 mM MgCl2, pH 7.4, 100 μM DTT). The EC50, IC50 and Emax of the compounds of the invention were evaluated from 10-point dose-response curves (three fold concentration range) done in 60 μl in 384-well non-specific binding surface plate (Corning). Ten microliters from the dose-response curves plate (5× concentration) were transferred to another 384 well plate containing the following: 10 μg of hM2 membranes, 500 μg of Flashblue beads (Perkin-Elmer) and GDP in a 25 μl volume. An additional 15 μl containing 3.3× (55000 dpm) of GTPγ^35S (0.4 nM final) were added to the wells resulting in a total well volume of 50 μl. Basal and maximal stimulated GTPγ^35S binding was determined in absence and presence of 30 μM of acetylcholine agonist. The membranes/beads mix were pre-incubated for 15 minutes at room temperature with 25 μM GDP prior to distribution in plates (12.5 μM final). The reversal of acetylcholine-induced stimulation (2 μM final) of GTPγ^35S binding was used to assay the antagonist properties (IC50) of the compounds. The plates were incubated for 60 minutes at room temperature with shaking, then centrifuged at 2000 rpm for 5 minutes. The radioactivity (cpm) was counted in a Trilux (Perkin-Elmer).
Values of EC50, IC50 and Emax were obtained using sigmoidal fits of a non-linear curve-fitting program (XLfit version 5.0.6 from ID Business Solutions Limited, Guildford, UK) of percent-stimulated GTPγ^35S binding vs. log (molar ligand).
All EC50 and IC50 values are reported as geometric means of ‘n’ independent experiments. […] The IC50 was the concentration of the compound of the invention at which 50% inhibition of acetylcholine GTPγ^35S binding stimulation has been observed.

SMILES | EC50 [1] [nM] | Emax [1] [%] | Emax [2] [%] | EC50 [2] [nM]
CCCCC1CCCN(C[C@@H]2CCCC[C@H]2NC(=O)CCc2ccc(Cl)cc2)C1 (mixture of isomers) | 174 | 86 | 38 | 1230
CCOC[C@@H]1CCCN(C[C@H]2CCCC[C@@H]2NC(=O)C2CCc3ccccc3O2)C1 (stereo partly drawn) [N-((1S,2R)-2-{[(3R)-3-(ethoxymethyl)piperidin-1-yl]methyl}cyclohexyl)chromane-2-carboxamide] | 55 | 98 | 54 | 570
CCCCC1CCCN(C[C@@H]2CCCC[C@H]2NC(=O)c2ccc(CN(CC)CC)cc2)C1 (mixture of isomers) | 103 | 94 | 2 | 165

Now those with a lower EC50 [1], led by results:

EC50 [1] [nM] | Emax [1] [%] | Emax [2] [%] | EC50 [2] [nM] | SMILES
33 | 97 | 50 | 4450 | C=CCO[C@@H]1CCCN(C[C@H]2CCCC[C@@H]2NC(=O)c2ccc(-n3cccn3)nc2)C1 [N-((1S,2R)-2-{[(3R)-3-(allyloxy)piperidin-1-yl]methyl}cyclohexyl)-6-(1H-pyrazol-1-yl)nicotinamide]
22 | 82 | 0 | > 30000 | CCOC[C@@H]1CCCN(C[C@H]2CCCC[C@@H]2NC(=O)c2cc3nc(C)cc(C)n3n2)C1 [N-((1S,2R)-2-{[(3R)-3-(ethoxymethyl)piperidin-1-yl]methyl}cyclohexyl)-5,7-dimethylpyrazolo[1,5-a]pyrimidine-2-carboxamid]
